Where “and” joins values, the source holds several entries; their conditions need not be identical. Identical values can stand only once. Toxic doses and inconclusive results are not listed.
System: BDF1 mice, P388 leukemia ip, median survival T/C
Experiment: NCI In Vivo Anticancer Drug Screen. Data for tumor model P388 Leukemia (intraperitoneal) in B6D2F1 (BDF1) mice
Details: endpoint: median survival time, higher = longer survival
How it was run: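 Read-out is survival of treated animals expressed relative to the vehicle group, as a T/C ratio.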

[1] = dose: 12.5 mg/kg/injection, schedule: Q01DX009 (ip), vehicle: saline with Tween-80
[2] = dose: 25.0 mg/kg/injection, schedule: Q01DX009 (ip), vehicle: saline with Tween-80
[3] = dose: 25.0 mg/kg/injection, schedule: Q04DX003 (ip), vehicle: saline with Tween-80
[4] = dose: 50.0 mg/kg/injection, schedule: Q01DX009 (ip), vehicle: saline with Tween-80
[5] = dose: 50.0 mg/kg/injection, schedule: Q04DX003 (ip), vehicle: saline with Tween-80
[6] = dose: 100.0 mg/kg/injection, schedule: Q01DX009 (ip), vehicle: saline with Tween-80
[7] = dose: 100.0 mg/kg/injection, schedule: Q04DX003 (ip), vehicle: saline with Tween-80
[8] = dose: 200.0 mg/kg/injection, schedule: Q01DX009 (ip), vehicle: saline with Tween-80
[9] = dose: 200.0 mg/kg/injection, schedule: Q04DX003 (ip), vehicle: saline with Tween-80
[10] = dose: 25.0 mg/kg/injection, schedule: Q01DX009 (ip), vehicle: Klucel (hydroxypropylcellulose) (HPC)
[11] = dose: 200.0 mg/kg/injection, schedule: Q01DX009 (ip), vehicle: Klucel (hydroxypropylcellulose) (HPC)
[12] = dose: 400.0 mg/kg/injection, schedule: Q01DX009 (ip), vehicle: saline with Tween-80
[13] = dose: 100.0 mg/kg/injection, schedule: Q04DX003 (ip), vehicle: Klucel (hydroxypropylcellulose) (HPC)
[14] = dose: 200.0 mg/kg/injection, schedule: Q04DX003 (ip), vehicle: Klucel (hydroxypropylcellulose) (HPC)
[15] = dose: 400.0 mg/kg/injection, schedule: Q04DX003 (ip), vehicle: saline with Tween-80
[16] = dose: 50.0 mg/kg/injection, schedule: Q01DX009 (ip), vehicle: Klucel (hydroxypropylcellulose) (HPC)
[17] = dose: 100.0 mg/kg/injection, schedule: Q01DX009 (ip), vehicle: Klucel (hydroxypropylcellulose) (HPC)

For C=C(Cl)c1c(C)cc(C)c(CC#N)c1C, the T/C (dose: 12.5 mg/kg/injection, schedule: Q04DX003 (ip), vehicle: DMSO) was 100 % of control, the T/C (dose: 25.0 mg/kg/injection, schedule: Q04DX003 (ip), vehicle: DMSO) was 113 % of control and the T/C (dose: 50.0 mg/kg/injection, schedule: Q04DX003 (ip), vehicle: DMSO) was 100 % of control.

For c1ccc(-c2cc(-c3ccccc3)[s+]s2)cc1, the T/C (dose: 6.25 mg/kg/injection, schedule: Q01DX009 (ip), vehicle: saline with Tween-80) was 111 % of control, the T/C [1] was 117 % of control and 124 % of control and the T/C [2] was 91 % of control and 110 % of control and 115 % of control. The T/C [3] was 98 % of control, the T/C [4] was 92 % of control and 113 % of control and the T/C [5] was 109 % of control and 115 % of control. The T/C [6] was 98 % of control and 113 % of control, the T/C [7] was 117 % of control and 118 % of control and the T/C [8] was 99 % of control and 120 % of control. For the same compound, the T/C [9] was 108 % of control and the T/C (dose: 300.0 mg/kg/injection, schedule: Q01DX009 (ip), vehicle: saline with Tween-80) was 94 % of control.

O=C(O)c1ccccc1P12(OC(=O)c3ccccc31)OC(=O)c1ccccc12 was tested, and the T/C [2] was 99 % of control, the T/C [4] was 99 % of control and the T/C [6] was 90 % of control.

Cc1cc(Sc2ccc(Cl)cc2)nc(Sc2ccc(Cl)cc2)c1C#N was tested, and the T/C (dose: 50.0 mg/kg/injection, schedule: Q01DX005 (ip), vehicle: saline with Tween-80) was 94 % of control, the T/C (dose: 100.0 mg/kg/injection, schedule: Q01DX005 (ip), vehicle: saline with Tween-80) was 88 % of control and the T/C (dose: 200.0 mg/kg/injection, schedule: Q01DX005 (ip), vehicle: saline with Tween-80) was 91 % of control.

C1=CC2(OCCO2)C2CC=CC3(OCCO3)C2C1 (stereo not given) was tested, and the T/C (dose: 12.5 mg/kg/injection, schedule: Q01DX009 (ip), vehicle: Klucel (hydroxypropylcellulose) (HPC)) was 114 % of control, the T/C [10] was 110 % of control and 123 % of control and the T/C [11] was 117 % of control.

With COc1cc2cc(c1Cl)N(C)C(=O)C[C@H](OC(=O)[C@H](C)N(C)C(=O)CC(C)C)[C@]1(C)O[C@H]1[C@H](C)[C@@H]1C[C@@](O)(NC(=O)O1)[C@H](OC)C=C/C=C(\C)C2 the T/C (dose: 0.1 micrograms/kg/injection, schedule: Q01DX009 (ip), vehicle: saline + alcohol) was 120 % of control, the T/C (dose: 0.4 micrograms/kg/injection, schedule: Q01DX009 (ip), vehicle: saline + alcohol) was 174 % of control and the T/C (dose: 0.8 micrograms/kg/injection, schedule: Q01DX009 (ip), vehicle: saline + alcohol) was 158 % of control. For the same compound, the T/C (dose: 1.6 micrograms/kg/injection, schedule: Q01DX009 (ip), vehicle: saline + alcohol) was 154 % of control, the T/C (dose: 3.1 micrograms/kg/injection, schedule: Q01DX009 (ip), vehicle: saline + alcohol) was 158 % of control and 165 % of control and the T/C (dose: 6.2 micrograms/kg/injection, schedule: Q01DX009 (ip), vehicle: saline + alcohol) was 154 % of control and 201 % of control. The T/C (dose: 12.5 micrograms/kg/injection, schedule: Q01DX009 (ip), vehicle: saline + alcohol) was 177 % of control and 187 % of control and the T/C (dose: 25.0 micrograms/kg/injection, schedule: Q01DX009 (ip), vehicle: saline + alcohol) was 116 % of control.

With CC(=O)NC1=C(N2CC2)C(=O)C(NC(C)=O)=C(N2CC2)C1=O the T/C (dose: 0.12 mg/kg/injection, schedule: Q01DX009 (ip), vehicle: saline) was 155 % of control, the T/C (dose: 0.25 mg/kg/injection, schedule: Q01DX009 (ip), vehicle: saline) was 166 % of control and 195 % of control and the T/C (dose: 0.5 mg/kg/injection, schedule: Q01DX009 (ip), vehicle: saline) was 270 % of control and 214 % of control. For the same compound, the T/C (dose: 1.0 mg/kg/injection, schedule: Q01DX009 (ip), vehicle: saline) was 285 % of control and 190 % of control and the T/C (dose: 2.0 mg/kg/injection, schedule: Q01DX009 (ip), vehicle: saline) was 109 % of control.

For Cc1ccc(CNc2cccnc2)cc1, the T/C (dose: 50.0 mg/kg/injection, schedule: Q01DX009 (ip), vehicle: other) was 95 % of control, the T/C (dose: 100.0 mg/kg/injection, schedule: Q01DX009 (ip), vehicle: other) was 104 % of control and the T/C [6] was 100 % of control. For the same compound, the T/C (dose: 200.0 mg/kg/injection, schedule: Q01DX009 (ip), vehicle: other) was 100 % of control and the T/C [12] was 100 % of control.

C1SCSCS1 was tested, and the T/C (dose: 75.0 mg/kg/injection, schedule: Q01DX009 (ip), vehicle: Klucel (hydroxypropylcellulose) (HPC)) was 118 % of control, the T/C (dose: 100.0 mg/kg/injection, schedule: Q01DX001 (ip), vehicle: other) was 109 % of control and the T/C [13] was 100 % of control. For the same compound, the T/C (dose: 150.0 mg/kg/injection, schedule: Q01DX009 (ip), vehicle: Klucel (hydroxypropylcellulose) (HPC)) was 100 % of control, the T/C (dose: 200.0 mg/kg/injection, schedule: Q01DX001 (ip), vehicle: other) was 90 % of control and the T/C [14] was 109 % of control. The T/C (dose: 300.0 mg/kg/injection, schedule: Q01DX009 (ip), vehicle: Klucel (hydroxypropylcellulose) (HPC)) was 113 % of control, the T/C (dose: 400.0 mg/kg/injection, schedule: Q01DX001 (ip), vehicle: other) was 100 % of control and the T/C (dose: 400.0 mg/kg/injection, schedule: Q04DX003 (ip), vehicle: Klucel (hydroxypropylcellulose) (HPC)) was 113 % of control.

CC(C)(Br)C(=O)c1ccc(Cl)s1 was tested, and the T/C [4] was 101 % of control, the T/C [6] was 111 % of control and the T/C [7] was 109 % of control. The T/C [8] was 119 % of control, the T/C [9] was 115 % of control and the T/C [12] was 119 % of control. For the same compound, the T/C [15] was 107 % of control.

With O=C(O)CCNSc1ccccc1[N+](=O)[O-] the T/C [4] was 106 % of control and the T/C [6] was 106 % of control.

For Cc1ccc(NC(=O)N(CCCCl)N=O)cc1, the T/C [10] was 105 % of control, the T/C [16] was 119 % of control and the T/C [17] was 111 % of control. For the same compound, the T/C [11] was 95 % of control.

In the case of Nc1nc(=S)c2ncn(C3OC(COC(=O)c4ccc([N+](=O)[O-])cc4)C(OC(=O)c4ccc([N+](=O)[O-])cc4)C3OC(=O)c3ccc([N+](=O)[O-])cc3)c2[nH]1 (stereo not given), the T/C [17] is reported as 111 % of control, the T/C [13] is reported as 91 % of control and the T/C [11] is reported as 103 % of control. The T/C [14] was 91 % of control.

O=C(CCl)N1CCc2ccccc21 was tested, and the T/C [10] was 104 % of control, the T/C (dose: 25.0 mg/kg/injection, schedule: Q04DX003 (ip), vehicle: Klucel (hydroxypropylcellulose) (HPC)) was 90 % of control and the T/C [16] was 100 % of control. For the same compound, the T/C (dose: 50.0 mg/kg/injection, schedule: Q04DX003 (ip), vehicle: Klucel (hydroxypropylcellulose) (HPC)) was 100 % of control, the T/C [17] was 86 % of control and the T/C [13] was 95 % of control.

For CCCNC(=O)Nc1cc(C(F)(F)F)ccc1Cl, the T/C [7] was 100 % of control, the T/C [9] was 100 % of control and the T/C [15] was 100 % of control.

For Nc1nc(N)c2cc(S(=O)c3ccc4ccccc4c3)ccc2n1 (stereo not given), the T/C [4] was 95 % of control, the T/C [6] was 95 % of control and the T/C [8] was 104 % of control.

For O=C(C=C(C(F)(F)F)C(F)(F)F)c1ccccc1Cl, the T/C (dose: 11.0 mg/kg/injection, schedule: Q01DX009 (ip), vehicle: saline with Tween-80) was 109 % of control, the T/C (dose: 16.5 mg/kg/injection, schedule: Q01DX009 (ip), vehicle: saline with Tween-80) was 118 % of control and the T/C [2] was 118 % of control.

CCCCCCOCCN1CCN(CCCN2c3ccccc3Sc3ccc(C(F)(F)F)cc32)CC1 was tested, and the T/C (dose: 12.5 mg/kg/injection, schedule: Q04DX003 (ip), vehicle: saline with Tween-80) was 121 % of control, the T/C [3] was 97 % of control and 112 % of control and the T/C [5] was 94 % of control.

For [NH-]C(CCC(N)=O)C(=O)O.[NH-]C(CCC(N)=O)C(=O)O.[Zn+2] (stereo not given), the T/C [1] was 91 % of control, the T/C [2] was 108 % of control and the T/C [4] was 121 % of control.

With COc1cc2c(c(OC)c1OC)CCc1cnoc1-2 the T/C [4] was 107 % of control, the T/C [6] was 95 % of control and the T/C [8] was 97 % of control. The T/C [12] was 92 % of control.

In the case of COc1cc2c(=O)n(C)c3c4cc5c(cc4ccc3c2cc1OC)OCO5, the T/C (dose: 1.0 mg/kg/injection, schedule: Q01DX010 (ip), vehicle: steriod suspending solution) is reported as 103 % of control, the T/C (dose: 3.0 mg/kg/injection, schedule: Q01DX010 (ip), vehicle: steriod suspending solution) is reported as 117 % of control and the T/C (dose: 6.0 mg/kg/injection, schedule: Q01DX010 (ip), vehicle: steriod suspending solution) is reported as 110 % of control.

From PubChem BioAssay AID328 (DTP/NCI, 2004)
